Values of other authors as cited in patent US20060178351A1, “Treatment of immune-mediated disorders with active vitamin D compounds alone or in combination with other therapeutic agents” (Novacea, Inc., priority 2003, published 2006).

Conditions: relative to an equal dose of calcitriol

SMILES: C=C1/C(=C\C=C2/CCC[C@]3(C)C([C@H](C)CC#CC(C)(C)O)=CC[C@@H]23)C[C@@H](O)C[C@@H]1O [Ro23-7553]
- Hypercalcemic effect compared to calcitriol: reduced hypercalcemic effect
